Test [1] deals with Human Breast Cancer Cells (MCF-7). Put plainly: Cell growth inhibition by direct cell counting, MCF-7. The settings on record: read-out: IG50 MCF-7. It counts as cell-based. As for the experimental part: (§1) Cells were taken out carefully from liquid nitrogen (Frozen pipes), and the cell freezing medium was thawed rapidly in water bath at 37° C. in order to rapidly pass through the temperature range of 0 to 5° C. within which the cell is easily damaged. Cell suspension was sucked with pipette gun and put it into centrifugal tubes under sterile condition, then was centrifuged for 3 min at 1300 r/min. The supernatant was gently discarded, and then added with a fresh medium to pipette and mix the cells. Finally, the cells were transferred into culture flasks, and cultured in a carbon dioxide incubator. The medium was changed once after 24 h.
(§2) After resuscitation, the cells were passed for 2-3 generations till they became stable, then they were used for the experiments. Each passage was based on the standard that all cells were spread over the bottoms of culture flasks.
(§3) Cell suspensions of a certain density (5×10^4 cells/mL) were plated at 24-well plate, 2 mL/well. Different concentration of drugs were added thereto, and incubated or some time. Then, cells were counted under the microscope. The ratio of total number of cells in test group to the total number of cells in control group is the cell growth inhibition rate under the concentration condition. The total number of cells in cell suspension, which were treated by drugs, could be counted by blood count board. Inhibition rate was calculated using the formula: […]
(§4) According to cell growth inhibition rate of each concentration of drugs, half inhibitory concentration could be calculated. (IG50 is the drug concentration, when cell growth inhibition rate was 50%.)
(§5) 7) The Results of the Growth Inhibitory Activity of the Compounds on Human Breast Cancer Cells (MCF-7) and Human Multidrug Resistant Breast Cancer Cells (MCF-7/Adr) were Listed in Table 3.

Test [2] has as its system Human Multidrug Resistant Breast Cancer Cells (MCF-7/Adr). As to the kind of experiment: Cell growth inhibition by direct cell counting, MCF-7/Adr. Format: cell-based. The settings on record: read-out: IG50 MCF-7/Adr. As for the experimental part:
as §1, §2, §3, §4, §5

Where [3] appears, read: MCF-7/Adr multidrug resistant cells.

Read-outs that look alike come from different tables or passages of the source.

Turning to `CC1CCC2C(C)[C@@H](Oc3ccc(Cn4ccnn4)cc3)OC3OC4(C)CCC1C32OO4` (stereo partly drawn) [Example 3, (10S)—O-[4-((1,2,3-triazol-1-yl)methyl)phenyl]-dihydroartemisinin], the values for the IC50 in test [1] (MCF-7 cells) and in test [2] (setting [3]) were 1320 nM and 718 nM, respectively.

For the molecule `C[C@H]1[C@@H](Oc2ccc(Cn3cncn3)cc2)O[C@@H]2O[C@@]3(C)CC[C@H]4[C@H](C)CC[C@@H]1[C@@]24OO3` [Example 4, (10S)—O-[4-((1,2,4-triazol-1-yl)methyl)phenyl]-dihydroartemisinin], the IC50 was determined as 1620 nM in test [1] (MCF-7 cells) and 476 nM in test [2] (setting [3]).

Take `COc1ccccc1N1CCN(Cc2ccc(O[C@H]3O[C@@H]4O[C@@]5(C)CC[C@H]6[C@H](C)CC[C@@H]([C@H]3C)[C@@]46OO5)cc2)CC1` [Example 11, (10)-O-[4-[(4-(2-methoxyphenyl)piperazin-1-yl)methyl]phenyl](10S)-dihydroartemisinin]: the IC50 is 475 nM in test [1] (MCF-7 cells) and 456 nM in test [2] (setting [3]).

Take `C[C@H]1[C@@H](Oc2ccc(CN3CCN(C)CC3)cc2)O[C@@H]2O[C@@]3(C)CC[C@H]4[C@H](C)CC[C@@H]1[C@@]24OO3` [Example 12, (10S)—O-[4-((4-methylpiperazin-1-yl)methyl)phenyl]-dihydroartemisinin]: the IC50 in test [1] (MCF-7 cells) stood at 1050 nM; in test [2] (setting [3]) it was 190 nM.

On to `C[C@H]1[C@@H](Oc2ccc(CN3CCN(c4ccc(F)cc4)CC3)cc2)O[C@@H]2O[C@@]3(C)CC[C@H]4[C@H](C)CC[C@@H]1[C@@]24OO3` [Example 13], for which the figures for the IC50 in test [1] (MCF-7 cells) and in test [2] (setting [3]) were 267 nM and 330 nM, respectively.

In the case of `C[C@H]1[C@@H](Oc2ccc(CN3CCN(c4ccccn4)CC3)cc2)O[C@@H]2O[C@@]3(C)CC[C@H]4[C@H](C)CC[C@@H]1[C@@]24OO3` [Example 14, 10-O-[4-[(4-(2-pyridyl)piperazin-1-yl)methyl]phenyl]-(10S)-dihydroartemisinin], the IC50 came to 1280 nM in test [1] (MCF-7 cells) and 1380 nM in test [2] (setting [3]).

For the molecule `CC1CCC2C(C)[C@@H](Oc3ccc(CN4CCN(c5ncccn5)CC4)cc3)OC3OC4(C)CCC1C32OO4` (stereo partly drawn) [Example 15, 10-O-[4-[(4-(2-pyrimidinyl)piperazin-1-yl)methyl]phenyl]-(10S)-dihydroartemisinin], the IC50 in test [1] (MCF-7 cells) turned out to be 443 nM; in test [2] (setting [3]) it was 1660 nM.

Consider `C[C@H]1[C@@H](Oc2cccc(CN3CCN(c4ccccc4)CC3)c2)O[C@@H]2O[C@@]3(C)CC[C@H]4[C@H](C)CC[C@@H]1[C@@]24OO3` [Example 18, 10-O-[3-[(4-phenylpiperazin-1-yl)methyl]phenyl]-(10S)-dihydroartemisinin], for which the IC50 in test [1] (MCF-7 cells) was found to be 690 nM; in test [2] (setting [3]), 355 nM.

As to `CC1CCC2C(C)[C@@H](Oc3cccc(CN4CCN(Cc5ccccc5)CC4)c3)OC3OC4(C)CCC1C32OO4` (stereo partly shown) [Example 19], the IC50 is 1190 nM in test [1] (MCF-7 cells) and 1090 nM in test [2] (setting [3]).

As for `CC1CCC2C(C)[C@@H](Oc3ccc(/C=C/C(=O)N4CCOCC4)cc3)OC3OC4(C)CCC1C32OO4` (stereo partly drawn) [Example 21, (10S)—O-{4-[3-oxo-3-(morpholin-4-yl)-1-(E)-propen-1-yl]phenyl}-dihydroartemisinin], the IC50 in test [1] (MCF-7 cells) turned out to be 241 nM.

Take `CC1CCC2C(C)[C@@H](Oc3ccc(/C=C/C(=O)N4CCCCC4)cc3)OC3OC4(C)CCC1C32OO4` (stereo partly drawn) [Example 22, (10S)—O-{4-[3-oxo-3-(piperidin-1-yl)-1-(E)-propen-1-yl]phenyl}-dihydroartemisinin]: in test [1] (MCF-7 cells), the IC50 worked out at 6.07 nM.

As to `C[C@H]1[C@@H](Oc2ccc(/C=C/C(=O)N3CCC(N4CCCCC4)CC3)cc2)O[C@@H]2O[C@@]3(C)CC[C@H]4[C@H](C)CC[C@@H]1[C@@]24OO3` [Example 23], the IC50 in test [1] (MCF-7 cells) amounted to 586 nM.

Regarding `COc1ccccc1N1CCN(C(=O)/C=C/c2ccc(O[C@H]3O[C@@H]4O[C@@]5(C)CC[C@H]6[C@H](C)CC[C@@H]([C@H]3C)[C@@]46OO5)cc2)CC1` [Example 27, (10S)—O-{4-[3-oxo-3-(4-(2-methoxyphenyl)piperazin-1-yl)-1-(E)-propen-1-yl]phenyl}-dihydroartemisinin], the IC50 in test [1] (MCF-7 cells) turned out to be 322 nM.

`CC1CCC2C(C)[C@@H](Oc3ccc(/C=C/C(=O)N4CCN(c5cccc(C(F)(F)F)c5)CC4)cc3)OC3OC4(C)CCC1C32OO4` (stereo partly drawn) [Example 28, (10S)—O-{4-[3-oxo-3-(4-(3-trifluoromethylphenyl)piperazin-1-yl)-1-(E)-propen-1-yl]phenyl}-dihydroartemisinin]: the IC50 in test [1] (MCF-7 cells) was 91.1 nM.

As for `CC1CCC2C(C)[C@@H](Oc3ccc(/C=C/C(=O)N4CCN(Cc5ccccc5)CC4)cc3)OC3OC4(C)CCC1C32OO4` (stereo partly drawn) [Example 29, (10S)—O-{4-[3-oxo-3-(4-benzylpiperazin-1-yl)-1-(E)-propen-1-yl]phenyl}-dihydroartemisinin], the IC50 in test [1] (MCF-7 cells) was determined as 15.6 nM.

As to `CC1CCC2C(C)[C@@H](Oc3ccc(/C=C/C(=O)N4CCN(c5ccccn5)CC4)cc3)OC3OC4(C)CCC1C32OO4` (stereo partly drawn) [Example 30, (10S)—O-{4-[3-oxo-3-(4-(2-pyridyl)piperazin-1-yl)-1-(E)-propen-1-yl]phenyl}-dihydroartemisinin], the IC50 in test [1] (MCF-7 cells) was 263 nM.

As for `CC1CCC2C(C)[C@@H](Oc3ccc(C=CC(=O)Oc4ccc(/C=C/C(=O)N5CCN(c6ncccn6)CC5)cc4)cc3)OC3OC4(C)CCC1C32OO4` (stereo partly drawn) [Example 32, 4-[(10S)-dihydroartemisinin-10-O-yl]phenyl-acrylic acid-4-[3-oxo-3-(4-(2-pyrimidinyl)piperazin-1-yl)-1-(E)-propen-1-yl]phenyl ester], the IC50 in test [1] (MCF-7 cells) was determined as 408 nM.

With `CC1CCC2C(C)[C@@H](Oc3ccc(CC(=O)N4CCOCC4)cc3)OC3OC4(C)CCC1C32OO4` (stereo partly drawn) [Example 34, (10S)—O-{4-[2-(morpholin-4-yl)-2-oxoethyl]phenyl}-dihydroartemisinin], the IC50 was determined as 7580 nM in test [1] (MCF-7 cells) and 239 nM in test [2] (setting [3]).

Turning to `C[C@H]1[C@@H](Oc2ccc(CC(=O)N3CCCCC3)cc2)O[C@@H]2O[C@@]3(C)CC[C@H]4[C@H](C)CC[C@@H]1[C@@]24OO3` [Example 35, (10S)—O-{4-[2-(piperidin-1-yl)-2-oxoethyl]phenyl}-dihydroartemisinin], the IC50 was found to be 1700 nM in test [1] (MCF-7 cells) and 62.4 nM in test [2] (setting [3]).

On to `CC1CCN(C(=O)Cc2ccc(O[C@H]3OC4OC5(C)CCC6C(C)CCC(C3C)C46OO5)cc2)CC1` (stereo partly drawn) [Example 36, (10S)—O-{4-[2-(4-methylpiperidin-1-yl)-2-oxoethyl]phenyl}-dihydroartemisinin], for which the IC50 in test [1] (MCF-7 cells) worked out at 549 nM; in test [2] (setting [3]) it was 104 nM.

As for `CC1CCCCN1C(=O)Cc1ccc(O[C@H]2O[C@@H]3O[C@@]4(C)CC[C@H]5[C@H](C)CC[C@@H]([C@H]2C)[C@@]35OO4)cc1` (stereo partly drawn) [Example 37, (10S)—O-{4-[2-(2-methylpiperidin-1-yl)-2-oxoethyl]phenyl}-dihydroartemisinin], in test [1], the IC50 is 1250 nM.

For `CC1CC(C)CN(C(=O)Cc2ccc(O[C@H]3O[C@@H]4O[C@@]5(C)CC[C@H]6[C@H](C)CC[C@@H]([C@H]3C)[C@@]46OO5)cc2)C1` (stereo partly drawn) [Example 38, (10S)—O-{4-[2-(3,5-dimethylpiperidin-1-yl)-2-oxoethyl]phenyl}-dihydroartemisinin], the IC50 came to 516 nM in test [1] (MCF-7 cells) and 360 nM in test [2] (setting [3]).

Regarding `CC1CCC2C(C)[C@@H](Oc3ccc(CC(=O)N4CCC(N5CCCCC5)CC4)cc3)OC3OC4(C)CCC1C32OO4` (stereo partly drawn) [Example 39, (10S)—O-{4-[2-[4-(piperidin-1-yl)piperidin-1-yl]-2-oxoethyl]phenyl}-dihydroartemisinin], the values for the IC50 in test [1] (MCF-7 cells) and in test [2] (setting [3]) were 1150 nM and 22.9 nM, respectively.

`C[C@H]1[C@@H](Oc2ccc(CC(=O)N3CCN(c4ccccc4)CC3)cc2)O[C@@H]2O[C@@]3(C)CC[C@H]4[C@H](C)CC[C@@H]1[C@@]24OO3` [Example 40, (10S)—O-{4-[2-(4-phenylpiperazin-1-yl)-2-oxoethyl]phenyl}-dihydroartemisinin]: the IC50 in test [1] is 2660 nM; in test [2] it was 79.1 nM.

On to `COc1ccccc1N1CCN(C(=O)Cc2ccc(O[C@H]3OC4OC5(C)CCC6C(C)CCC(C3C)C46OO5)cc2)CC1` (stereo partly drawn) [Example 41, (10S)—O-{4-[2-[4-(2-methoxyphenyl)piperazin-1-yl]-2-oxoethyl]phenyl}-dihydroartemisinin], for which the IC50 in test [1] (MCF-7 cells) is 790 nM; in test [2] (setting [3]), 29.8 nM.

On to `CC1CCC2C(C)[C@@H](Oc3ccc(CC(=O)N4CCN(c5ccc(F)cc5)CC4)cc3)OC3OC4(C)CCC1C32OO4` (stereo partly drawn) [Example 42, (10S)—O-{4-[2-[4-(4-fluorophenyl)piperazin-1-yl]-2-oxoethyl]phenyl}-dihydroartemisinin], for which the IC50 in test [1] (MCF-7 cells) was 1090 nM; in test [2] (setting [3]) it was 11.2 nM.

As to `CC1CCC2C(C)[C@@H](Oc3ccc(CC(=O)N4CCN(C)CC4c4ccccc4)cc3)OC3OC4(C)CCC1C32OO4` (stereo partly drawn) [Example 43, (10S)—O-{4-[2-(4-methyl-2-phenylpiperazin-1-yl)-2-oxoethyl]phenyl}-dihydroartemisinin], the figures for the IC50 in test [1] (MCF-7 cells) and in test [2] (setting [3]) were 2290 nM and 1060 nM, respectively.

With `CC1CCC2C(C)[C@@H](Oc3ccc(CC(=O)NCc4ccccc4)cc3)OC3OC4(C)CCC1C32OO4` (stereo partly drawn) [Example 48, (10S)—O-[4-[2-(benzylamino)-2-oxoethyl]phenyl]-dihydroartemisinin], the IC50 in test [1] (MCF-7 cells) is 1400 nM.

Source of the values: patent US9718837B2, “Nitrogen-containing heterocyclic ring substituted dihydroartemisinin derivatives and use thereof” (Shenyang Pharmaceutical University, priority 2013, dated 2017).
